Source: patent publication US12318364B2, “Isoflavonoid compositions and methods for the treatment of cancer” (Aardvark Therapeutics, Inc., priority 2010, dated 2025)
≈ marks a conversion by molar mass, not a printed value.

Test: Solubility limit of compound d-4 in aqueous Captisol (SBE7-β-CD) solution
Assay type: physicochemical
Settings: at 25° C., 20% Captisol® in water

Oc1ccc([C@H]2c3ccc(O)cc3OC[C@H]2c2ccc(O)cc2)cc1 (relative stereo) [Compound d-4, d-cis-3-(4-hydroxyphenyl)-4-(4-hydroxyphenyl)chroman-7-ol]
solubility limit: 27.9 mg/mL (≈ 83.4 mM)
